Patent publication US20130184338A1, “PHENYLPROPYL CARBAMATE DERIVATIVES FOR USE IN PREVENTING OR TREATING MULTIPLE SCLEROSIS” (Bio-Pharm Solutions Co., Ltd., priority 2011, published 2013)
Where “and” joins values, the source holds several entries; their conditions need not be identical. Equal entries are not always repeated. Entries after “also recorded” stand apart in the source; their conditions may differ. Where two headings read alike, the source gives them in different places.

How the values were obtained:
male mice (ICR) [1] = assay: Muscle relaxation: endurance time on rotarod rotating at accelerated speed; type: in vivo; details: Mus musculus, ip; intraperitoneal, at time of maximum effect; 50% of activity vs vehicle only; read-out: MR test ED50, I = Acc. Rotarod
Experimental: (§1) For testing, male mice (ICR) were purchased from ORIENT BIO INC. (Korea), divided into several groups with 6 mice in each group, and were adapted for 4-5 days. The mice having the weight ranging from 19 g to 26 g were employed for the test. The pharmacological effect of the test compounds on muscle relaxation was evaluated by Rotarod test, grip strength test, and muscular force (wire hang) test. All mice were adapted to the test environment at one hour before starting the tests. The pharmacological effects of all the test compounds were evaluated by administration through peritoneal cavity of the mice (10 ul/g, bw).
At 24 hours before testing, the mice to be tested were preliminarily trained for 5 minutes on a rod rotating at the rate of 6 revolutions per a minute. The pharmacological effect on muscle relaxation of the test compounds were evaluated by observing the mice on a rod for 5 minutes, where the rod was accelerated from 4 to 40 revolutions per a minute during the test time. The endurance time that each mouse endures on the acceleratedly rotated rod without falling off from the rod was recorded. As test time for evaluation, a maximum of 5 minutes was applied. […] This experimentation was conducted according to the method described in the reference, ‘Monville et al. (2006) Comparison of incremental and accelerating protocol of the rotarod test for the assessment of motor deficits in the 6-OHDA model. J. Neurosci. Meth. 158: 219-223’.
(§2) The results of muscle relaxation activity of the phenyl carbamate compounds measured in above Experimental Examples 11.2 to 11.5 are shown in following Table 5.

male SD rats = assay: MES (Maximal Electroshock Seizure) test in rats; details: for ED50: Rattus norvegicus, po, read-out: Duration of MES test ED50
MOG EAE rat = assay: Anti-multiple sclerosis activity by MOG EAE rat
male mice (ICR) [2] = assay: Muscle relaxation: wire hang; type: in vivo; details: Mus musculus; intraperitoneal, at time of maximum effect; 50% of activity vs vehicle only; read-out: MR test ED50, IV = Wire hang
Experimental: as §1
This experimentation was conducted using a metal wire of 30 cm in length, which was suspended between two pillars at a height of about 40 cm from the bottom covered with a soft pad. […] Each mouse was made to grip the wire using two forelimbs, and the elapse time before the mouse fell off from the wire to the pad on the bottom was recorded in seconds. Each mouse was given 5 opportunities for this test at an interval of 2 minutes period. The highest 3 records among the test opportunities were selected and the mean value was used as the test result. This experimentation was conducted according to the method described in the reference, ‘Jacqueline N. Crawley (1999) Behavioral phenotyping of transgenic and knockout mice: experimental design and evaluation of general health, sensory functions, motor abilities, and specific behavioral tests. Brain Res. 835: 18-26’.
as §2

male mice (ICR) [3] = assay: Muscle relaxation: residence time on rotarod rotating at fixed speed (15 r.p.m.); type: in vivo; details: Mus musculus, ip; intraperitoneal, at time of maximum effect; 50% of activity vs vehicle only; read-out: MR test ED50, II = Fixed 15 r.p.m. Rotarod
male ICR mice = assay: MES (Maximal Electroshock Seizure) test in mice; details: for ED50: Mus musculus, po
male mice (ICR) [4] = assay: Muscle relaxation: grip strength; type: in vivo; details: Mus musculus, ip; intraperitoneal, at time of maximum effect; 50% of activity vs vehicle only; read-out: MR test ED50, III = Grip strength
Experimental: as §1
A grip strength test using the test animals' forelimbs was performed using an instrument equipped with triangle ring and designed so as to easily grip with the forelimbs of experimental animals, manufactured from Ugo Basile Inc. (Ugo Basile, Model47106, Italy). The test was conducted before and after administration of the compounds to evaluate the effects thereof. […] The mouse was made to grip the rod with its forelimbs, and its tail was pulled, where the force at which the mouse detached from the rod was recorded. The instrument indicated the force in grams. All of the mice were given […] for test, and the 3 highest values among the test opportunities were selected and the mean value was used as the test result. This experimentation was conducted according to the method described in the reference, ‘Nevins et al. (1993) Quantitative grip strength assessment as a means of evaluating muscle relaxation in mice. Psychopharmacol. 110: 92-96’.
as §2

**Q.** How did the ED50 (male mice (ICR) [1]) turn out when `C[C@H](OC(N)=O)[C@@H](O)c1ccccc1Cl` [Compound 1, 1-(2-chlorophenyl)-(S)-1-hydroxypropyl-(S)-2-carbamate] was run?
**A.** 39.7 mg/kg

**Q.** What about the ED50 (male SD rats; 0.5 h) of the same compound?
**A.** 5.9 mg/kg

**Q.** And the ED50 (male SD rats; 1 h)?
**A.** 3.3 mg/kg

**Q.** And the ED50 (male SD rats; 2 h)?
**A.** 1.4 mg/kg

**Q.** What about the ED50 (male SD rats; 4 h) of the same compound?
**A.** 6.9 mg/kg

**Q.** And the ED50 (male SD rats; 12 h)?
**A.** 36.1 mg/kg

**Q.** What about the “efficacy duration time (MES)” value (male SD rats; rats, oral) of the same compound?
**A.** at least 12 hours

**Q.** What about the “body weight gain vs vehicle group” value (MOG EAE rat; 3, 10 and 50 mg/kg p.o. twice a day, days 0-30, p>0.05) of the same compound?
**A.** gained weight similarly than vehicle group

**Q.** And the Disease incidence (MOG EAE rat; all groups (3, 10, 50 mg/kg p.o. twice a day, days 0-29))?
**A.** 100%

**Q.** And the mortality (MOG EAE rat; rat, in vivo)?
**A.** 0.0% and 5.0%

**Q.** And the “CD68 immunoreactivity (% of white matter area) vs vehicle” value (MOG EAE rat; spinal cord C segment, 50 mg/kg, day 30, p<0.05, 50 mg/kg)?
**A.** significantly smaller than in vehicle group; also recorded: reduced immunoreactivity

**Q.** What about the “CD68 immunoreactivity (% of white matter area) vs vehicle” value (MOG EAE rat; spinal cord T segment, all doses, day 30) of the same compound?
**A.** significantly less immunoreactivity; also recorded: significantly reduced immunoreactivity

**Q.** And the “CD68 immunoreactivity (% of white matter area) vs vehicle” value (MOG EAE rat; spinal cord combined C+T segments, all doses, day 30)?
**A.** significantly less immunoreactivity; also recorded: significantly reduced immunoreactivity

**Q.** And the “demyelination area (% of white matter area) vs vehicle” value (MOG EAE rat; spinal cord, all doses (3, 10, 50 mg/kg), all segments, day 30, MBP staining)?
**A.** significantly less demyelination than vehicle treated animals; also recorded: significantly diminished demyelinated lesion volumes

**Q.** What about the ED50 (male mice (ICR) [2]) of the same compound?
**A.** 13.3 mg/kg

**Q.** And the ED50 (male mice (ICR) [3])?
**A.** 23.3 mg/kg

**Q.** And the ED50 (male ICR mice; 0.25 h, read-out: Duration of MES test ED50)?
**A.** 21.2 mg/kg

**Q.** And the ED50 (male ICR mice; 0.5 h, read-out: Duration of MES test ED50)?
**A.** 22.5 mg/kg

**Q.** What about the ED50 (male ICR mice; 1 h, read-out: Duration of MES test ED50) of the same compound?
**A.** 13.3 mg/kg

**Q.** And the ED50 (male ICR mice; 2 h, read-out: Duration of MES test ED50)?
**A.** 13 mg/kg

**Q.** And the ED50 (male ICR mice; 3 h, read-out: Duration of MES test ED50)?
**A.** 14.7 mg/kg

**Q.** What about the ED50 (male ICR mice; 4 h, read-out: Duration of MES test ED50) of the same compound?
**A.** 18.7 mg/kg

**Q.** And the ED50 (male ICR mice; 6 h, read-out: Duration of MES test ED50)?
**A.** 30 mg/kg

**Q.** What about the ED50 (male ICR mice; 8 h, read-out: Duration of MES test ED50) of the same compound?
**A.** 49.4 mg/kg

**Q.** And the ED50 (male ICR mice; 12 h, read-out: Duration of MES test ED50)?
**A.** 119 mg/kg

**Q.** And the ED50 (male ICR mice; read-out: MES test (po) ED50)?
**A.** 13 mg/kg

**Q.** What about the “efficacy duration time (MES)” value (male ICR mice; mice, oral) of the same compound?
**A.** at least 12 hours

**Q.** What about the ED50 (male mice (ICR) [4]) of the same compound?
**A.** 40.9 mg/kg

**Q.** What does the source list for `C[C@@H](OC(N)=O)[C@@H](O)c1ccccc1Cl` [Compound 4, 1-(2-chlorophenyl)-(S)-1-hydroxypropyl-(R)-2-carbamate]?
**A.** ED50 (male mice (ICR) [1]): 69.3 mg/kg; ED50 (male mice (ICR) [2]): 40 mg/kg; ED50 (male mice (ICR) [3]): 65 mg/kg; ED50 (male ICR mice; read-out: MES test (po) ED50): 82.4 mg/kg; ED50 (male mice (ICR) [4]): 124 mg/kg
